Assay results taken from patent publication US20050260715A1, “Efficient methods for producing antimicrobial cationic peptides in host cells” (priority 1998, published 2005).
Like-named read-outs stand apart in the source and are kept apart here. Square brackets hold non-standard residues; d marks the D form. Ends that are not written are not given here. Peptide text beside a SMILES is read from it. * marks the point of attachment. hSer(lactone) = O=C1OCC[C@@H]1N*; hSer = N[C@@H](CCO)C(=O)O

Tests used:
[1] = tested on: E. faecalis EFS8
Protocol: (§1) In the present case, the antimicrobial activities of MBI-11B7CN, MBI-11B7HSL (homoserine lactone form) and MBI-11B7HS (homoserine form) were tested against various gram-negative and gram-positive strains, including antibiotic resistant strains. The assay was performed as described in “Methods for Dilution Antimicrobial Susceptibility Tests for Bacteria That Grow Aerobically-Fourth Edition; Approved Standard” NCCLS document M7-A4 (ISBN 1-56238-309-4) Vol. 17, No. 2 (1977).
(§2) The antimicrobial activities of the chemically synthesized MBI-11B7CN peptide and recombinant DNA synthesized MBI-11B7HSL (homoserine lactone form) and MBI-11B7HS (homoserine form) peptides were tested against various gram-negative and positive strains of bacteria, including antibiotic resistant strains. The Agarose Dilution Assay was performed as described in “Methods for Dilution Antimicrobial Susceptibility Tests for Bacteria That Grow Aerobically-Fourth Edition; Approved Standard” NCCLS document M7-A4 (ISBN 1-56238-309-4) Vol. 17, No 2 (1977).
(§3) The agarose dilution assay measures antimicrobial activity of peptides and peptide analogues, which is expressed as the minimum inhibitory concentration (MIC) of the peptides.
(§4) In order to mimic in vivo conditions, calcium and magnesium supplemented Mueller Hinton broth is used in combination with a low EEO agarose as the bacterial growth medium. Agarose, rather than agar, is used as the charged groups in agar prevent peptide diffusion through the media. The medium is autoclaved and then cooled to 50° C.-55° C. in a water bath before aseptic addition of anti-microbial solutions. The same volume of different concentrations of peptide solution are added to the cooled molten agarose, which is then poured to a depth of 3-4 mm.
(§5) The bacterial inoculum is adjusted to a 0.5 McFarland turbidity standard (PML Microbiological) and then diluted 1:10 before application on to the agarose plate. The final inoculum applied to the agarose is approximately 10^4 CFU in a 5-8 mm diameter spot. The agarose plates are incubated at 35° C.-37° C. for 16 to 20 hours.

[2] = tested on: P. aeruginosa PA4
Protocol: as §1, §2, §3, §4, §5

[3] = tested on: E. coli ECO5
Protocol: as §1, §2, §3, §4, §5

[4] = tested on: E. faecalis EFS1
Protocol: as §1, §2, §3, §4, §5

[5] = tested on: S. aureus SA93
Protocol: as §1, §2, §3, §4, §5

[6] = tested on: E. cloacae ECL7
Protocol: as §1, §2, §3, §4, §5

[7] = tested on: K. pneumoniae KP1
Protocol: as §1, §2, §3, §4, §5

[8] = tested on: S. marcescens SMS3
Protocol: as §1, §2, §3, §4, §5

[9] = tested on: S. epidermidis SE10
Protocol: as §1, §2, §3, §4, §5

[10] = tested on: S. aureus SA14
Protocol: as §1, §2, §3, §4, §5

[11] = tested on: S. maltophilia SMA2
Protocol: as §1, §2, §3, §4, §5

[12] = tested on: A. calcoaceticus AC2
Protocol: as §1, §2, §3, §4, §5

[13] = E. faecalis, organism # EFS8, source ATCC, agarose dilution
[14] = P. aeruginosa, organism # PA4, source ATCC, agarose dilution
[15] = E. coli, organism # ECO5, source ATCC, agarose dilution
[16] = E. faecalis, organism # EFS1, source ATCC, agarose dilution
[17] = S. aureus, organism # SA93, source Bayer, agarose dilution
[18] = E. cloacae, organism # ECL7, source ATCC, agarose dilution
[19] = K. pneumoniae, organism # KP1, source ATCC, agarose dilution
[20] = S. marcescens, organism # SMS3, source ATCC, agarose dilution
[21] = S. epidermidis, organism # SE10, source Chow, agarose dilution
[22] = S. aureus, organism # SA14, source Bayer, agarose dilution
[23] = S. maltophilia, organism # SMA2, source ATCC, agarose dilution
[24] = A. calcoaceticus, organism # AC2, source ATCC, agarose dilution

## CC[C@H](C)[C@H](N)C(=O)N[C@@H](CC(C)C)C(=O)N[C@@H](CCCNC(=N)N)C(=O)N[C@@H](Cc1c[nH]c2ccccc12)C(=O)N1CCC[C@H]1C(=O)N[C@@H](Cc1c[nH]c2ccccc12)C(=O)N[C@@H](Cc1c[nH]c2ccccc12)C(=O)N1CCC[C@H]1C(=O)N[C@@H](Cc1c[nH]c2ccccc12)C(=O)N[C@@H](CCCNC(=N)N)C(=O)N[C@@H](CCCNC(=N)N)C(=O)N[C@@H](CCCCN)C(=O)N[C@@H](CCO)C(=O)O [11B7HS] (H-ILRWPWWPWRRK[hSer]-OH; N-terminus assumed)
[1]; EFS8
  MIC: 32 µg/mL
[2]; PA4
  MIC: >64 µg/mL
[3]; ECO5
  MIC: 32 µg/mL
[4]; EFS1
  MIC: 2 µg/mL
[5]; SA93
  MIC: 1 µg/mL
[6]; ECL7
  MIC: >64 µg/mL
[7]; KP1
  MIC: 32 µg/mL
[8]; SMS3
  MIC: >64 µg/mL
[9]; SE10
  MIC: 8 µg/mL
[10]; SA14
  MIC: 2 µg/mL
[11]; SMA2
  MIC: 64 µg/mL
[12]
  MIC: 2 µg/mL

## ILRWPWWPWRRK-NH2 [11B7CN]
[1]; [13]
  MIC: 16 µg/mL
[2]; [14]
  MIC: >64 µg/mL
[3]; [15]
  MIC: 8 µg/mL
[4]; [16]
  MIC: 2 µg/mL
[5]; [17]
  MIC: 1 µg/mL
[6]; [18]
  MIC: >64 µg/mL
[7]; [19]
  MIC: 8 µg/mL
[8]; [20]
  MIC: >64 µg/mL
[9]; [21]
  MIC: 2 µg/mL
[10]; [22]
  MIC: 4 µg/mL
[11]; [23]
  MIC: 32 µg/mL
[12]; [24]
  MIC: 2 µg/mL

## CC[C@H](C)[C@H](N)C(=O)N[C@@H](CC(C)C)C(=O)N[C@@H](CCCNC(=N)N)C(=O)N[C@@H](Cc1c[nH]c2ccccc12)C(=O)N1CCC[C@H]1C(=O)N[C@@H](Cc1c[nH]c2ccccc12)C(=O)N[C@@H](Cc1c[nH]c2ccccc12)C(=O)N1CCC[C@H]1C(=O)N[C@@H](Cc1c[nH]c2ccccc12)C(=O)N[C@@H](CCCNC(=N)N)C(=O)N[C@@H](CCCNC(=N)N)C(=O)N[C@@H](CCCCN)C(=O)N[C@H]1CCOC1=O [11B7HSL] (H-ILRWPWWPWRRK-{hSer(lactone)}; N-terminus assumed)
[1]; [13]
  MIC: 16 µg/mL
[2]; [14]
  MIC: >64 µg/mL
[3]; [15]
  MIC: 8 µg/mL
[4]; [16]
  MIC: 1 µg/mL
[5]; [17]
  MIC: 1 µg/mL
[6]; [18]
  MIC: >64 µg/mL
[7]; [19]
  MIC: 8 µg/mL
[8]; [20]
  MIC: >64 µg/mL
[9]; [21]
  MIC: 4 µg/mL
[10]; [22]
  MIC: 1 µg/mL
[11]; [23]
  MIC: 32 µg/mL
[12]; [24]
  MIC: 4 µg/mL
